Results from US20240002499A1, “ANTI-CLIC1 PROTEIN ANTIBODIES AND THE DIAGNOSTIC AND THERAPEUTIC USES THEREOF” (Universita' Degli Studi di Milano, priority 2020, published 2024).
“Also recorded” adds a separate entry of the source.

Columns and labels:
[1] = system: tumour cells; conditions: both in vitro and in vivo; cited from earlier work
[2] = system: COLO201; test: Trans well migration and invasion assay; assay type: cell-based; conditions: COLO201 WT, 72 h
Experimental: The overexpression of tmCLIC1 in the most aggressive cell lines of colorectal cancer and its pivotal role in regulation of cell cycle progression and proliferation, opens a question on the function of tmCLIC1 activity on migration and invasion potential of CRCs, that makes colorectal cancer still uncurable. We performed a Trans well assay to understand whether CLIC1 impairment could affect the migration and invasion potential of COLO201. Cells were plated after 60 hours of serum deprivation on a porous membrane, permeable only to growth factor, in contact to complete medium. The resulting chemo-attractant gradient leads the migrative cells to cross the membranes that are then stained with DAPI to visualize the nuclei. […] For invasion assays, we coated with Matrigel the porous membrane to mimic the extracellular matrix that cells must disrupt to invade tissues and mucosa.
Cells were plated after 60 hours of serum deprivation on a […] porous membrane, permeable only to growth factor, in contact to complete medium. Membranes were cut, stained with DAPI dye, and included with mowiol. Cover glasses were examined under Zeiss Examiner A1 fluorescence microscope with a Zeiss 40×/0.75 NA water immersion lens.

[3] = system: pMAP38; test: Western blot of phosphorylated MAP38 in COLO201; assay type: cell-based; conditions: COLO201, 72 h of treatment
[4] = molecular target: T1, tmCLIC1 ion channel (Mus musculus, UniProt Q9Z1Q5); test: Whole-cell patch clamp on BV2 microglial cells with β-amyloid; assay type: cell-based, mice; conditions: blocker perfused after tmCLIC1omab
T1 construct: endogenous in cells; host or cells: BV-2 mouse microglial cell line
Excerpt: The microglial cells used (BV-2) originated from an immortalised cell line deriving from C57BL/6 mice and commonly marketed. The culture medium used was RPMI (Thermo Fisher Scientific) with the addition of 10% FBS (Euroclone) and 1% Pen/Strep ([…], Thermo Fisher Scientific).
The microelectrodes were obtained from borosilicate capillaries with a diameter of 1.5 mm. Micropipettes were produced with a P-97 Brown-Flaming puller (Sutter Instruments, Novato, CA), with which the capillaries were forged to a tip diameter of 1-1.5 μm and electrical resistance of 5-8 MΩ.
The perforated patch clamp configuration was used for the whole-cell experiments, employing the antibiotic gramicidin (final concentration in pipette 5 μg/ml) which forms pores in the membrane that are only permeable to monovalent cations; in this way, the cytoplasmic concentration of the chloride ion remains unchanged throughout the experiment. The ion currents were digitised at 5 kHz and filtered at 1 kHz. Clampex 9.2 was used as the data acquisition and analysis programme.
In the time-course experiments, the potential was set on the basis of the resting potential of each cell, and a voltage step of +60 mV was applied every 5 seconds. The current measured is that observed at the end of the voltage step lasting 800 ms. When the amplitude of the current reaches a constant value, the antibody and IAA94 are added in sequence. […]

[5] = system: COLO201; test: COLO201 spheroids, 3D culture; assay type: cell-based; conditions: treated 24 to 96 hours, area normalized on initial area
Experimental: To evaluate whether tmCLIC1omab is able to penetrate across tumor spheroids, a 3D culture was performed. After the complete formation of spheroids, treatments were added and the area was measured every 24 hours up to 96 hours. The area at each time point was then normalized on the initial spheroids' area.
Spheroids were formed with hanging-drop method and then plated in rounded 96 plates coated with 5% of agar. After the complete formation of spheroids, treatments were added and the area was measured every 24 hours up to 96 hours. The area at each time point was then normalized on the initial spheroids' area.

[6] = cited from earlier work
[7] = molecular target: T2, CLIC1 (Homo sapiens, UniProt O00299); test: Whole-cell patch clamp on HEK cells transfected with CLIC1 plasmid; assay type: cell-based; conditions: HEK cells overexpressing CLIC1; voltage steps from −60 to +80 mV; IAA94 50 μM
T2 construct: expressed in transfected cells; host or cells: HEK cells
Experimental: FIG. 17. Current/voltage relationship of CLIC1 membrane current in whole-cell patch clamp experiments. HEK cells were transfected with CLIC1 plasmid to overexpress the CLIC1 protein. After recording control current (filled cycles; n=5) cells were perfused alternatively with the polyclonal antibody (open triangles; n=7), tmCLIComab (inverse open triangles; n=10) and with 50 μM IAA94 (filled squared; n=11). The whole cells current is expressed as a current density.
The reference sequence of the CLIC1 protein used in the experiments described in the present patent application is filed at UniProt under number UniProtKB—000299 (CLIC1 human), and described in the article Harrop S. J. et al., “Crystal structure of a soluble form of the intracellular chloride ion channel CLIC1 (NCC27) at 1.4-Å Resolution”; The Journal of Biological Chemistry, Vol. 276 No. 48, November 30, pp. 44993-45000 (2001).
The potential was set on the basis of the resting potential of each cell (between 0 and −80 mV). The CLIC1-mediated chlorine currents were isolated from other ion currents by mathematical subtraction of the residual current following perfusion of 100 μM IAA94 dissolved in the external solution.

[8] = system: Metalloproteinase 7 (MMP7); test: Western blot of Metalloproteinase 7 in COLO201; assay type: cell-based; conditions: COLO201, 72 h of treatment
[9] = system: human glioblastoma cells; test: Growth curves of human glioblastoma cells in primary culture; assay type: cell-based; conditions: glioblastoma cells, FIG. 9
Excerpt: The primary glioblastoma cell lines, already tested for stem cell properties and carcinogenicity, were kindly supplied by Professor T. Florio's laboratory at Genoa University (Genoa, Italy). The cells were obtained from a surgical biopsy performed in the Neurosurgery Department of IRCCS-AOU San Martino IST (Genoa, Italy), from patients who had not received any treatment before the operation. The samples were histologically classified as GB grade IV (according to the WHO classification), and were used after obtaining the patients' informed consent and the approval of the Institutional Ethics Committee (IEC). The cells were cultured in stem cell-permissive medium consisting of Dulbecco's Modified Eagle's Medium (DMEM) and F12-GlutaMAX at the ratio of 1:1, supplemented with 1×B27 (Thermo Fisher Scientific), […] of fibroblast growth factor (FGF, Miltenyi Biotec), […] of human epidermal growth factor (EGF, Miltenyi Biotec) and 1% penicillin/streptomycin (Pen/Strep, […]) (Thermo Fisher Scientific).
The cells were seeded in 24-well plates (20,000 cells/well) and counted after 24, 48, 72 and 96 hours to construct the growth curve. The cells were collected and centrifuged, and the resuspended pellet was diluted 1:1 with Trypan Blue. An automated counter (Countess II, Thermo Fisher Scientific) was used to count the cells. All data were normalized to their controls.

[10] = system: human glioblastoma cells; test: ROS production in human glioblastoma cells in primary culture; assay type: cell-based
Experimental: In the subsequent functional experiment, ROS production was measured over time. The graph in FIG. 11 relates to the acquisition of fluorescence signals proportional to the amount of cytoplasmic ROS in glioblastoma cells. The cells were treated with both the antibody and the tmCLIC1 channel blocker.

In the case of `C[C@]1(C2CCCC2)Cc2cc(OCC(=O)O)c(Cl)c(Cl)c2C1=O` [IAA94, R(+)-[(6,7-dichloro-2-cyclopentyl-2,3-dihydro-2-methyl-1-oxo-1H-inden-5-yl)-oxy]acetic acid, reference compound], the “proliferation of the tumour cells” value [1] is given as “drastic slowing”, the “migration (number of migrative nuclei) versus control” value [2] is given as “significant lower number of migrative nuclei” and the “invasion (number of invasive nuclei) versus control” value ([2]; Matrigel-coated membrane) is given as “the same behavior seen for migration assay”. The “expression of pMAP38” value [3] was “downregulated”, the “further decrease in membrane current after antibody treatment” value [4] was “only generates a minimal decrease in current” and the “spheroids' area / proliferation of spheroids versus control” value [5] was “significantly smaller compared to the control from 48 h; also recorded: impair proliferation of spheroids significantly after 48 hours”. The “usability in vivo / side effects” value [6] was “unusable in vivo for its side effects”, the “inhibition of CLIC1 ionic whole-cell current” value [7] was “maximum inhibition” and the “expression of Metalloproteinase 7” value [8] was “mainly abolished”. For the same molecule, the “growth rate compared with Clic1−/− knockout cells” value [9] was “the same growth rate”, the “fall in ROS production” value ([10]; FIG. 11 legend, versus control) was “about fourfold” and the “reduction of the slope of the ROS increase curve” value ([10]; fluorescence signals proportional to cytoplasmic ROS) was “about fivefold”.
